In PubChem BioAssay AID256 (DTP/NCI, 2004):
Where “and” joins values, the source holds several entries; their conditions need not be identical. Equal entries are not always repeated. Toxic doses and inconclusive results are not listed.

System: CD2F1 mice, L1210 leukemia ip, survival T/C
Assay: NCI In Vivo Anticancer Drug Screen. Data for tumor model L1210 Leukemia (intraperitoneal) in CD2F1 (CDF1) mice
Conditions: higher = longer survival
In short: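 Vehicle-treated tumor-bearing mice served as controls (C) for compound-treated mice (T). Reported figure is T divided by C.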

[1] = endpoint: mean survival time, dose: 12.5 mg/kg/injection, schedule: Q01DX009 (ip), vehicle: saline with Tween-80
[2] = endpoint: mean survival time, dose: 25.0 mg/kg/injection, schedule: Q01DX009 (ip), vehicle: saline with Tween-80
[3] = endpoint: mean survival time, dose: 50.0 mg/kg/injection, schedule: Q01DX009 (ip), vehicle: saline with Tween-80
[4] = endpoint: mean survival time, dose: 100.0 mg/kg/injection, schedule: Q01DX009 (ip), vehicle: saline with Tween-80
[5] = endpoint: mean survival time, dose: 100.0 mg/kg/injection, schedule: Q04DX003 (ip), vehicle: saline with Tween-80
[6] = endpoint: mean survival time, dose: 200.0 mg/kg/injection, schedule: Q04DX003 (ip), vehicle: saline with Tween-80
[7] = endpoint: mean survival time, dose: 400.0 mg/kg/injection, schedule: Q01DX009 (ip), vehicle: saline with Tween-80
[8] = endpoint: mean survival time, dose: 400.0 mg/kg/injection, schedule: Q04DX003 (ip), vehicle: saline with Tween-80
[9] = endpoint: mean survival time, dose: 100.0 mg/kg/injection, schedule: Q01DX001 (ip), vehicle: saline
[10] = endpoint: mean survival time, dose: 200.0 mg/kg/injection, schedule: Q01DX001 (ip), vehicle: saline
[11] = endpoint: mean survival time, dose: 400.0 mg/kg/injection, schedule: Q01DX001 (ip), vehicle: saline
[12] = endpoint: mean survival time, dose: 100.0 mg/kg/injection, schedule: Q04DX002 (ip), vehicle: saline with Tween-80
[13] = endpoint: mean survival time, dose: 200.0 mg/kg/injection, schedule: Q04DX002 (ip), vehicle: saline with Tween-80
[14] = endpoint: mean survival time, dose: 50.0 mg/kg/injection, schedule: Q01DX009 (ip), vehicle: saline
[15] = endpoint: mean survival time, dose: 12.5 mg/kg/injection, schedule: Q01DX009 (ip), vehicle: saline
[16] = endpoint: mean survival time, dose: 25.0 mg/kg/injection, schedule: Q01DX009 (ip), vehicle: saline
[17] = endpoint: mean survival time, dose: 200.0 mg/kg/injection, schedule: Q01DX009 (ip), vehicle: saline with Tween-80

## CC(C)(C)[Si](OP(=O)(O[Si](c1ccccc1)(c1ccccc1)C(C)(C)C)N(CCCl)CCCl)(c1ccccc1)c1ccccc1
endpoint: mean survival time, dose: 15.63 mg/kg/injection, schedule: Q01DX001 (ip), vehicle: distilled water + Tween-80
  T/C: 101 % of control
endpoint: mean survival time, dose: 31.25 mg/kg/injection, schedule: Q01DX001 (ip), vehicle: distilled water + Tween-80
  T/C: 95 % of control
endpoint: mean survival time, dose: 62.5 mg/kg/injection, schedule: Q01DX001 (ip), vehicle: distilled water + Tween-80
  T/C: 101 % of control
endpoint: mean survival time, dose: 125.0 mg/kg/injection, schedule: Q01DX001 (ip), vehicle: distilled water + Tween-80
  T/C: 98 % of control
endpoint: mean survival time, dose: 250.0 mg/kg/injection, schedule: Q01DX001 (ip), vehicle: distilled water + Tween-80
  T/C: 92 % of control
endpoint: mean survival time, dose: 500.0 mg/kg/injection, schedule: Q01DX001 (ip), vehicle: distilled water + Tween-80
  T/C: 103 % of control

## CCOC(=O)Nc1cc2c(c(N)n1)N=C(c1ccccc1)CN2
endpoint: median survival time, dose: 0.63 mg/kg/injection, schedule: Q01DX009 (ip), vehicle: saline with Tween-80
  T/C: 118 % of control and 101 % of control
endpoint: median survival time, dose: 0.75 mg/kg/injection, schedule: Q01DX009 (ip), vehicle: saline with Tween-80
  T/C: 106 % of control

## COc1ccc2[nH]cc(CCN(C)C)c2c1
[1]
  T/C: 94 % of control
endpoint: mean survival time, dose: 12.5 mg/kg/injection, schedule: Q04DX003 (ip), vehicle: saline with Tween-80
  T/C: 100 % of control
[2]
  T/C: 91 % of control
endpoint: mean survival time, dose: 25.0 mg/kg/injection, schedule: Q04DX003 (ip), vehicle: saline with Tween-80
  T/C: 95 % of control
[3]
  T/C: 92 % of control
endpoint: mean survival time, dose: 50.0 mg/kg/injection, schedule: Q04DX003 (ip), vehicle: saline with Tween-80
  T/C: 96 % of control

## C(=N\N=C\C1CCc2ccccc21)/c1ccco1 (stereo not given)
[4]
  T/C: 88 % of control
[5]
  T/C: 94 % of control
[6]
  T/C: 93 % of control
[7]
  T/C: 88 % of control
[8]
  T/C: 87 % of control

## CCOC(=O)c1c(F)c(F)c(Oc2c(F)c(F)c(F)c(F)c2F)c(F)c1F
[5]
  T/C: 86 % of control
[6]
  T/C: 96 % of control
[8]
  T/C: 92 % of control

## BrC/C(=N\N1CCCCCC1)c1ccc(Br)cc1
[9]
  T/C: 94 % of control
[10]
  T/C: 92 % of control
[11]
  T/C: 92 % of control

## N#CC1C2CCC(O2)C1C(=O)OCc1ccccc1 (stereo not given)
[2]
  T/C: 102 % of control
endpoint: mean survival time, dose: 25.0 mg/kg/injection, schedule: Q04DX002 (ip), vehicle: saline with Tween-80
  T/C: 106 % of control
[3]
  T/C: 102 % of control
endpoint: mean survival time, dose: 50.0 mg/kg/injection, schedule: Q04DX002 (ip), vehicle: saline with Tween-80
  T/C: 101 % of control
[4]
  T/C: 102 % of control
[12]
  T/C: 101 % of control
[13]
  T/C: 89 % of control

## OCC1OC(Oc2ccc(O)cc2)C(O)C(O)C1O (stereo not given)
[14]
  T/C: 103 % of control
[9]
  T/C: 101 % of control
endpoint: mean survival time, dose: 100.0 mg/kg/injection, schedule: Q01DX009 (ip), vehicle: saline
  T/C: 103 % of control
[10]
  T/C: 117 % of control
endpoint: mean survival time, dose: 200.0 mg/kg/injection, schedule: Q01DX009 (ip), vehicle: saline
  T/C: 95 % of control
[11]
  T/C: 101 % of control
endpoint: mean survival time, dose: 400.0 mg/kg/injection, schedule: Q01DX009 (ip), vehicle: saline
  T/C: 100 % of control

## CCCC(C#N)OC(=O)c1ccccc1 (stereo not given)
[2]
  T/C: 96 % of control
[3]
  T/C: 104 % of control
[5]
  T/C: 101 % of control

## CC(C#N)C(N)=O (stereo not given)
[15]
  T/C: 98 % of control
[16]
  T/C: 101 % of control
[14]
  T/C: 102 % of control

## [C-]#[N+]CCS(=O)(=O)CC[N+]#[C-]
[4]
  T/C: 94 % of control
[5]
  T/C: 102 % of control
[17]
  T/C: 94 % of control
[6]
  T/C: 102 % of control
[7]
  T/C: 100 % of control
[8]
  T/C: 89 % of control

## Brc1c2ccccc2c(Br)c2ccccc12
endpoint: mean survival time, dose: 100.0 mg/kg/injection, schedule: Q04DX002 (ip), vehicle: Klucel (hydroxypropylcellulose) (HPC)
  T/C: 86 % of control
endpoint: mean survival time, dose: 200.0 mg/kg/injection, schedule: Q04DX002 (ip), vehicle: Klucel (hydroxypropylcellulose) (HPC)
  T/C: 114 % of control
endpoint: mean survival time, dose: 400.0 mg/kg/injection, schedule: Q04DX002 (ip), vehicle: Klucel (hydroxypropylcellulose) (HPC)
  T/C: 86 % of control

## CC1NCCCNCCCNC(C)c2cccc1n2 (stereo not given)
endpoint: mean survival time, dose: 50.0 mg/kg/injection, schedule: Q04DX002 (ip), vehicle: saline
  T/C: 104 % of control

## CN1CC[C@]23c4c5ccc(O)c4O[C@H]2C(=O)CC[C@H]3[C@H]1C5
[15]
  T/C: 95 % of control
[16]
  T/C: 102 % of control
[14]
  T/C: 93 % of control

## NCCc1ccccn1
[5]
  T/C: 96 % of control
[6]
  T/C: 101 % of control

## CC12CCCCC1=CC(=O)CC2 (stereo not given)
[4]
  T/C: 97 % of control
[12]
  T/C: 96 % of control
[17]
  T/C: 102 % of control
[13]
  T/C: 112 % of control
endpoint: mean survival time, dose: 400.0 mg/kg/injection, schedule: Q04DX002 (ip), vehicle: saline with Tween-80
  T/C: 104 % of control

## CN(C)N=Nc1ccc(Cl)cc1C(=O)O
endpoint: mean survival time, dose: 266.0 mg/kg/injection, schedule: Q04DX003 (ip), vehicle: other
  T/C: 114 % of control
endpoint: mean survival time, dose: 400.0 mg/kg/injection, schedule: Q04DX003 (ip), vehicle: other
  T/C: 120 % of control

## Cc1cc(NCCN(C(C)C)C(C)C)nc(Nc2nc3cc(Cl)c(Cl)cc3[nH]2)n1
endpoint: mean survival time, dose: 6.25 mg/kg/injection, schedule: Q01DX009 (ip), vehicle: saline with Tween-80
  T/C: 100 % of control
[1]
  T/C: 105 % of control
[2]
  T/C: 92 % of control
[5]
  T/C: 87 % of control

## CC1=Nc2ccccc2N=C(C)C1
endpoint: mean survival time, dose: 50.0 mg/kg/injection, schedule: Q01DX009 (ip), vehicle: acetone
  T/C: 101 % of control
endpoint: mean survival time, dose: 100.0 mg/kg/injection, schedule: Q01DX009 (ip), vehicle: acetone
  T/C: 98 % of control

## CC1(C(=O)O)CC1(C)C(=O)O (stereo not given)
[4]
  T/C: 93 % of control
[17]
  T/C: 91 % of control
[7]
  T/C: 90 % of control

## CCCCCCCCN(c1ccc(I)cc1)S(=O)(=O)c1ccc(C)cc1
[5]
  T/C: 94 % of control
[6]
  T/C: 94 % of control

## COC1OC(CNC(=O)N(C)N=O)C(O)C(O)C1O (stereo not given)
endpoint: mean survival time, dose: 33.0 mg/kg/injection, schedule: Q01DX009 (ip), vehicle: saline
  T/C: 120 % of control
endpoint: mean survival time, dose: 113.0 mg/kg/injection, schedule: Q01DX009 (ip), vehicle: saline
  T/C: 153 % of control

## COC(=O)C(C)C(C)(O)C(C)(C)C (stereo not given)
[2]
  T/C: 100 % of control
endpoint: mean survival time, dose: 25.0 mg/kg/injection, schedule: Q04DX003 (ip), vehicle: saline
  T/C: 103 % of control
[3]
  T/C: 101 % of control
endpoint: mean survival time, dose: 50.0 mg/kg/injection, schedule: Q04DX003 (ip), vehicle: saline
  T/C: 103 % of control
[4]
  T/C: 102 % of control
endpoint: mean survival time, dose: 100.0 mg/kg/injection, schedule: Q04DX003 (ip), vehicle: saline
  T/C: 98 % of control

## Brc1ccc(N=Cc2ccccc2)cc1
endpoint: mean survival time, dose: 100.0 mg/kg/injection, schedule: Q04DX002 (ip), vehicle: saline
  T/C: 100 % of control
endpoint: mean survival time, dose: 200.0 mg/kg/injection, schedule: Q04DX002 (ip), vehicle: saline
  T/C: 103 % of control
endpoint: mean survival time, dose: 400.0 mg/kg/injection, schedule: Q04DX002 (ip), vehicle: saline
  T/C: 107 % of control

## Fc1ccc(-c2ccc(F)cc2)cc1
[5]
  T/C: 101 % of control
[6]
  T/C: 98 % of control
[8]
  T/C: 98 % of control

## c1ccc2c(c1)Cc1c(NC3=NCCO3)cccc1-2
[5]
  T/C: 98 % of control
[6]
  T/C: 109 % of control
[8]
  T/C: 101 % of control

## CNNCc1ccc(/C=N/NC(N)=S)cc1
endpoint: mean survival time, dose: 6.25 mg/kg/injection, schedule: Q01DX009 (ip), vehicle: water
  T/C: 96 % of control
endpoint: mean survival time, dose: 12.5 mg/kg/injection, schedule: Q01DX009 (ip), vehicle: water
  T/C: 98 % of control
endpoint: mean survival time, dose: 25.0 mg/kg/injection, schedule: Q01DX009 (ip), vehicle: water
  T/C: 100 % of control
endpoint: mean survival time, dose: 50.0 mg/kg/injection, schedule: Q01DX009 (ip), vehicle: water
  T/C: 86 % of control and 96 % of control
endpoint: mean survival time, dose: 100.0 mg/kg/injection, schedule: Q01DX009 (ip), vehicle: water
  T/C: 86 % of control and 96 % of control

## CC(C)NC(=O)N(CCCCBr)N=O
endpoint: median survival time, dose: 12.0 mg/kg/injection, schedule: Q01DX009 (ip), vehicle: Klucel (hydroxypropylcellulose) (HPC)
  T/C: 108 % of control
endpoint: median survival time, dose: 25.0 mg/kg/injection, schedule: Q01DX009 (ip), vehicle: Klucel (hydroxypropylcellulose) (HPC)
  T/C: 116 % of control
endpoint: median survival time, dose: 50.0 mg/kg/injection, schedule: Q01DX009 (ip), vehicle: Klucel (hydroxypropylcellulose) (HPC)
  T/C: 124 % of control
endpoint: median survival time, dose: 100.0 mg/kg/injection, schedule: Q01DX009 (ip), vehicle: Klucel (hydroxypropylcellulose) (HPC)
  T/C: 160 % of control
endpoint: median survival time, dose: 200.0 mg/kg/injection, schedule: Q01DX009 (ip), vehicle: Klucel (hydroxypropylcellulose) (HPC)
  T/C: 112 % of control
